In EP4467141A1, “PYRAZOLO-QUINOLINES AS SELECTIVE INHIBITORS OF GENOTOXIC STRESS-INDUCED IKK/NF- KB PATHWAYS FOR CANCER THERAPY” (Max-Delbrück-Centrum für Molekulare Medizin in der …, priority 2023, dated 2024):

Experiments:
Assay in all cases: Kinase panel study
Format in all cases: biochemical
Conditions in all cases: read-out: Percentage of inhibition; for inhibition at 1 µM: 1000nM; for inhibition at 10 µM: 10000nM
CHUK (IKK alpha) = target: T1, CHUK (IKK alpha) (Homo sapiens, UniProt O15111)
T1 construct: purchased Thermo Fisher Scientific
T1 sequence (O15111 1-745): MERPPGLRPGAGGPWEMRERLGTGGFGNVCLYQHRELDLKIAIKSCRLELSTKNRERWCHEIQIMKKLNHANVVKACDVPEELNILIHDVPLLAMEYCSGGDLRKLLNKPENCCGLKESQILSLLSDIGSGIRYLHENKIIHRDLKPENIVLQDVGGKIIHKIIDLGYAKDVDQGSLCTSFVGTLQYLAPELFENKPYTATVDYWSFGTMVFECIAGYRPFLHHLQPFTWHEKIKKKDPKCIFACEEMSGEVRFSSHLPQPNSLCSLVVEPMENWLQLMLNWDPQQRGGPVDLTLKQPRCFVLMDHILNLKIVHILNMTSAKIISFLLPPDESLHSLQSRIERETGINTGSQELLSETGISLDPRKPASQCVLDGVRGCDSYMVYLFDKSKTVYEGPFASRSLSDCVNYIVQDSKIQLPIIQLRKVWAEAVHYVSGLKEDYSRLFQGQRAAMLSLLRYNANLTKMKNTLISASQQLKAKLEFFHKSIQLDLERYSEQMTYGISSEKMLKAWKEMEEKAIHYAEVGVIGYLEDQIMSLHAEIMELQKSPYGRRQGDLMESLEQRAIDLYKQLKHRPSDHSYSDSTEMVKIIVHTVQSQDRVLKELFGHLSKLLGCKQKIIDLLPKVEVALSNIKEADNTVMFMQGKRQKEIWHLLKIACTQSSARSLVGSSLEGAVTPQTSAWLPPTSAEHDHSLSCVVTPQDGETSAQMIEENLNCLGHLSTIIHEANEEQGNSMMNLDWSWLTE
How it was run: (§1)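 Kinase inhibition was determined by a contract provider in cell-free ZLyte or Adapta assays. Results are expressed as % inhibition at 10 or 1 µM.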

PRKD1 (PKC mu) = target: T2, PRKD1 (PKC mu) (Homo sapiens, UniProt Q15139)
T2 construct: purchased Thermo Fisher Scientific
T2 sequence (Q15139 1-912): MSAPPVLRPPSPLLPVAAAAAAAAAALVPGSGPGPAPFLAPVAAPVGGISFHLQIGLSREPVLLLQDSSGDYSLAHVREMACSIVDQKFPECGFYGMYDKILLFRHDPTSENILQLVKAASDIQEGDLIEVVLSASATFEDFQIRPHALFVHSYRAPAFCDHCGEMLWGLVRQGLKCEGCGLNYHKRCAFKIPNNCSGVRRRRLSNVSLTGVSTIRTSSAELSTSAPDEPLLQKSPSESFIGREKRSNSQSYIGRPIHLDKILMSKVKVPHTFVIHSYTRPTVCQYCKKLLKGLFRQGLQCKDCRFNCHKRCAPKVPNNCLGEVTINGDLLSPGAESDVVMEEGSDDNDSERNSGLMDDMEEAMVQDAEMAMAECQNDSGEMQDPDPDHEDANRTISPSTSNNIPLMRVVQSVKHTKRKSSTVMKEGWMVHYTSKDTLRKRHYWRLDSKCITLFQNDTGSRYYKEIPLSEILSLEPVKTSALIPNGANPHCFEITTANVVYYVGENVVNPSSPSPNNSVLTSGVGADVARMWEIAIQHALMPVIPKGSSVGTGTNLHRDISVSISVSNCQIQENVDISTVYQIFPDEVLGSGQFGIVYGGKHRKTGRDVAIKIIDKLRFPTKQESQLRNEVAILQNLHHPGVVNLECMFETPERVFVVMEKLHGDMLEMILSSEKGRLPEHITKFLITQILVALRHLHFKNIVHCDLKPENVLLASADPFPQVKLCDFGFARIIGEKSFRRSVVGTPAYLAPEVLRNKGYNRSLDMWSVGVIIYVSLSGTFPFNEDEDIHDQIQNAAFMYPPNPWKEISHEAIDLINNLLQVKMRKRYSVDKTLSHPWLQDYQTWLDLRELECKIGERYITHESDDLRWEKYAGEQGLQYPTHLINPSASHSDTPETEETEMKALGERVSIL
How it was run: as §1

RET = target: T3, RET (Homo sapiens, UniProt P07949)
T3 construct: purchased Thermo Fisher Scientific
How it was run: as §1

EGFR (ErbB1) C797S = target: T4, EGFR (ErbB1) C797S (Homo sapiens, UniProt P00533, C797S)
T4 construct: purchased Thermo Fisher Scientific
How it was run: as §1

MAPK13 (p38 delta) = target: T5, MAPK13 (p38 delta) (Homo sapiens, UniProt O15264)
T5 construct: purchased Thermo Fisher Scientific
T5 sequence (O15264 1-365): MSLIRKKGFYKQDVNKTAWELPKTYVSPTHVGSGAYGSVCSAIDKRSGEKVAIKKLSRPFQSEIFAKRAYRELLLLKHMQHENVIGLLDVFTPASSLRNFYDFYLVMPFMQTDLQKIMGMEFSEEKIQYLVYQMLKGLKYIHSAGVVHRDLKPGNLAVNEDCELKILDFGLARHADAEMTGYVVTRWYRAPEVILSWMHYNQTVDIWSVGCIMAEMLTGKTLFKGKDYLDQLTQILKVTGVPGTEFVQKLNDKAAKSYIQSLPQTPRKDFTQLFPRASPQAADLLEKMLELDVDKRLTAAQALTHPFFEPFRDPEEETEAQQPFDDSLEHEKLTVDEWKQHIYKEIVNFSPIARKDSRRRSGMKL
How it was run: as §1

T3 sequence (P07949 29-1114): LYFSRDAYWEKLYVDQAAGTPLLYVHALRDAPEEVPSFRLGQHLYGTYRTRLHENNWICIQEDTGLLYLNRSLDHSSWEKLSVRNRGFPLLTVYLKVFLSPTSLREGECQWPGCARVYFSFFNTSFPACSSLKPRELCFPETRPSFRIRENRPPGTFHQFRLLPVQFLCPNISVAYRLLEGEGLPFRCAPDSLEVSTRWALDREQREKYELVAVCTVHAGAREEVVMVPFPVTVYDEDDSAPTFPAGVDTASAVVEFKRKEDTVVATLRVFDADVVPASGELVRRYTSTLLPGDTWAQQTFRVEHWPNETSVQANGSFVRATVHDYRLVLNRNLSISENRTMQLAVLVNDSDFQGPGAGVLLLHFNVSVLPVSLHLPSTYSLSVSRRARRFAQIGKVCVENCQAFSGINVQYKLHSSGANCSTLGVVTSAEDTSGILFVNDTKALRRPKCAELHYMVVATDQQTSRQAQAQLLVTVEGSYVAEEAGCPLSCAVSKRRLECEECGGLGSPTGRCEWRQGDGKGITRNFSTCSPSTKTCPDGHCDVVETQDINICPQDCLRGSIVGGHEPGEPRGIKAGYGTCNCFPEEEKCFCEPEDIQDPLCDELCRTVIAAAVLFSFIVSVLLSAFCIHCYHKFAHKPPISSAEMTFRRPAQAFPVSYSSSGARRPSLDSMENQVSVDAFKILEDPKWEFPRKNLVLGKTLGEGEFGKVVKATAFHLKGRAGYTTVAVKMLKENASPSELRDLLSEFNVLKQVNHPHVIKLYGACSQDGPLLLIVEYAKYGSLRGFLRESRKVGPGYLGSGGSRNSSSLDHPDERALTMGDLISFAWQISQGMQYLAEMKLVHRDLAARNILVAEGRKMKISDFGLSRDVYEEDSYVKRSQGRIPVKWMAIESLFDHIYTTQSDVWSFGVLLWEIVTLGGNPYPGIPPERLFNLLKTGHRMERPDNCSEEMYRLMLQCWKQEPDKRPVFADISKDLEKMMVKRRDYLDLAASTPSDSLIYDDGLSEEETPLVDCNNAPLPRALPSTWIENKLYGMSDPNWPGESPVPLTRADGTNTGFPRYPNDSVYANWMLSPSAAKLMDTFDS
T4 sequence (P00533 25-1210 C797S): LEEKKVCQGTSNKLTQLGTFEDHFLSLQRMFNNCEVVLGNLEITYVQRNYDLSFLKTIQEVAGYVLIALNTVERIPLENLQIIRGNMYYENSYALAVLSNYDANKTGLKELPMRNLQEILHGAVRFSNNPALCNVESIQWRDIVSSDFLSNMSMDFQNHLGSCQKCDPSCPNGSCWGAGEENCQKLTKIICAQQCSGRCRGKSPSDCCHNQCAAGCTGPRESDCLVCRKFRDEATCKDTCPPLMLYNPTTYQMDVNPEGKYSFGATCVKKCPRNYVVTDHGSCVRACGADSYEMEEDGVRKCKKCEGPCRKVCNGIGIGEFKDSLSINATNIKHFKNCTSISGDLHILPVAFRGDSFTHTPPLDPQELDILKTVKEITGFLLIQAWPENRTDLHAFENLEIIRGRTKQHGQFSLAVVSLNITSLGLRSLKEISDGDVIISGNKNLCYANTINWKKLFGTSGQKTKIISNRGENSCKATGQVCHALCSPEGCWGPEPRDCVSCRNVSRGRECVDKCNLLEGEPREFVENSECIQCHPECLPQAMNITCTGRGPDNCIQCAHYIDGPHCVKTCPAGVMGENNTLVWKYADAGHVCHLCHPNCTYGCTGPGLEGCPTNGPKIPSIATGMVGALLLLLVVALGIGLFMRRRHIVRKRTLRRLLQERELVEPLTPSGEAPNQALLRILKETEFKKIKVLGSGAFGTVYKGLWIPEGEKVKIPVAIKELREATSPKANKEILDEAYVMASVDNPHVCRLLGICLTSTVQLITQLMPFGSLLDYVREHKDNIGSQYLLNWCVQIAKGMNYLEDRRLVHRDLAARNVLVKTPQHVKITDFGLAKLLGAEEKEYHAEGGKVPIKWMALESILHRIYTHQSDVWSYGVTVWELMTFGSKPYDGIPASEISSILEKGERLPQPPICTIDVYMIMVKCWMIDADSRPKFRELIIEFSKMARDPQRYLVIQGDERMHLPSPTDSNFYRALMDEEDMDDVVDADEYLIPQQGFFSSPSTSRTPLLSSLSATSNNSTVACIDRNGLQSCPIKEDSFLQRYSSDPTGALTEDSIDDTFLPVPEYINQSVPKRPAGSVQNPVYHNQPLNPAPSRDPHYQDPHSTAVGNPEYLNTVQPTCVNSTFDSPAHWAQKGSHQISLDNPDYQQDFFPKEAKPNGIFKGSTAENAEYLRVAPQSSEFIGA

With `COc1ccc2c(c1OC)c(=O)n1c3ccc(O)cc3c3ccnc2c31` [MW01, 5-Hydroxy-10,11-dimethoxy-9H-benzo[c]indolo[3,2,1-ij][1,5]naphthyridin-9-one] the inhibition at 1 µM (CHUK (IKK alpha)) was 19%, the inhibition at 10 µM (CHUK (IKK alpha)) was 21% and the inhibition at 1 µM (PRKD1 (PKC mu)) was 28%. The inhibition at 10 µM (PRKD1 (PKC mu)) was 49%, the inhibition at 1 µM (RET) was 15% and the inhibition at 10 µM (RET) was 34%. It also gave an inhibition at 1 µM (EGFR (ErbB1) C797S) of 4%, an inhibition at 10 µM (EGFR (ErbB1) C797S) of 11% and an inhibition at 1 µM (MAPK13 (p38 delta)) of 13%. For the same compound, the inhibition at 10 µM (MAPK13 (p38 delta)) was 11%.

Compound `COc1ccc2cc3c(N)nn(C(=O)c4cccc(N(C)C)c4)c3nc2c1` [MW05, (3-Amino-7-methoxypyrazolo[3,4-b]quinolin-1-yl)-[3-(dimethylamino)phenyl]methanone] has an inhibition at 1 µM (CHUK (IKK alpha)) of 7%, an inhibition at 10 µM (CHUK (IKK alpha)) of 18% and an inhibition at 1 µM (PRKD1 (PKC mu)) of 5%. For the same compound, the inhibition at 10 µM (PRKD1 (PKC mu)) was 9%, the inhibition at 1 µM (RET) was 9% and the inhibition at 10 µM (RET) was 12%. For the same compound, the inhibition at 1 µM (EGFR (ErbB1) C797S) was 1%, the inhibition at 10 µM (EGFR (ErbB1) C797S) was -14% and the inhibition at 1 µM (MAPK13 (p38 delta)) was 8%. It also gave an inhibition at 10 µM (MAPK13 (p38 delta)) of 9%.
